Reference: PubChem BioAssay (NCI)
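Five compound concentrations were applied to cells in 96-well plates for 48 hours; endpoints were derived by simple linear interpolation of the resulting dose-response curve. TGI: total growth inhibition.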

How the values were obtained:
Assay in all cases: inhibition of tumour cell growth, NCI panel, 48 h
SK-MEL-2 melanoma = tested on: SK-MEL-2 melanoma
HL-60(TB) leukemia = tested on: HL-60(TB) leukemia
A498 renal = tested on: A498 renal
KM12 colon = tested on: KM12 colon
OVCAR-5 ovarian = tested on: OVCAR-5 ovarian
UACC-62 melanoma = tested on: UACC-62 melanoma
LOX IMVI melanoma = tested on: LOX IMVI melanoma
MOLT-4 leukemia = tested on: MOLT-4 leukemia
XF 498 CNS = tested on: XF 498 CNS
SNB-75 CNS = tested on: SNB-75 CNS
U251 CNS = tested on: U251 CNS
RXF-631 renal = tested on: RXF-631 renal
SW-620 colon = tested on: SW-620 colon
NCI-H460 lung = tested on: NCI-H460 lung
M19-MEL melanoma = tested on: M19-MEL melanoma
K-562 leukemia = tested on: K-562 leukemia
HCT-15 colon = tested on: HCT-15 colon
LXFL 529 NSCLC = tested on: LXFL 529 NSCLC
UACC-257 melanoma = tested on: UACC-257 melanoma
HOP-92 NSCLC = tested on: HOP-92 NSCLC
EKVX NSCLC = tested on: EKVX NSCLC
RPMI-8226 leukemia = tested on: RPMI-8226 leukemia
OVCAR-4 ovarian = tested on: OVCAR-4 ovarian
TK-10 renal = tested on: TK-10 renal
KM20L2 colon = tested on: KM20L2 colon
NCI-H522 lung = tested on: NCI-H522 lung
HT29 colon = tested on: HT29 colon
CCRF-CEM leukemia = tested on: CCRF-CEM leukemia
DMS 114 small cell lung = tested on: DMS 114 small cell lung
A549 NSCLC = tested on: A549 NSCLC
HOP-62 NSCLC = tested on: HOP-62 NSCLC
DMS 273 small cell lung = tested on: DMS 273 small cell lung
HCC-2998 colon = tested on: HCC-2998 colon
SF-295 CNS = tested on: SF-295 CNS
IGROV1 ovarian = tested on: IGROV1 ovarian
COLO 205 colon = tested on: COLO 205 colon
SK-OV-3 ovarian = tested on: SK-OV-3 ovarian
SF-539 CNS = tested on: SF-539 CNS
DLD-1 colon = tested on: DLD-1 colon
ACHN renal = tested on: ACHN renal
M14 melanoma = tested on: M14 melanoma
OVCAR-8 ovarian = tested on: OVCAR-8 ovarian
SF-268 CNS = tested on: SF-268 CNS
SK-MEL-28 melanoma = tested on: SK-MEL-28 melanoma
HOP-18 NSCLC = tested on: HOP-18 NSCLC
RXF 393 renal = tested on: RXF 393 renal
UO-31 renal = tested on: UO-31 renal
NCI-H226 lung = tested on: NCI-H226 lung
MALME-3M melanoma = tested on: MALME-3M melanoma
786-0 renal = tested on: 786-0 renal
HCT-116 colon = tested on: HCT-116 colon
SNB-19 CNS = tested on: SNB-19 CNS
SN12C renal = tested on: SN12C renal
NCI-H23 lung = tested on: NCI-H23 lung
CAKI-1 renal = tested on: CAKI-1 renal
OVCAR-3 ovarian = tested on: OVCAR-3 ovarian
SK-MEL-5 melanoma = tested on: SK-MEL-5 melanoma

N/N=C(/Cc1ccccc1)NNC(N)=S
TGI (SK-MEL-2 melanoma): > 100 µM | TGI (HL-60(TB) leukemia): > 100 µM | TGI (A498 renal): > 100 µM | TGI (KM12 colon): > 100 µM | TGI (OVCAR-5 ovarian): > 100 µM | TGI (UACC-62 melanoma): > 100 µM | TGI (LOX IMVI melanoma): > 100 µM | TGI (MOLT-4 leukemia): > 100 µM | TGI (XF 498 CNS): > 100 µM | TGI (SNB-75 CNS): > 100 µM | TGI (U251 CNS): > 100 µM | TGI (RXF-631 renal): > 100 µM | TGI (SW-620 colon): > 100 µM | TGI (NCI-H460 lung): > 100 µM | TGI (M19-MEL melanoma): > 100 µM | TGI (K-562 leukemia): > 100 µM | TGI (HCT-15 colon): > 100 µM | TGI (LXFL 529 NSCLC): > 100 µM | TGI (UACC-257 melanoma): > 100 µM | TGI (HOP-92 NSCLC): > 100 µM | TGI (EKVX NSCLC): > 100 µM | TGI (RPMI-8226 leukemia): > 100 µM | TGI (OVCAR-4 ovarian): > 100 µM | TGI (TK-10 renal): > 100 µM | TGI (KM20L2 colon): > 100 µM | TGI (NCI-H522 lung): 76 µM | TGI (HT29 colon): > 100 µM | TGI (CCRF-CEM leukemia): > 100 µM | TGI (DMS 114 small cell lung): > 100 µM | TGI (A549 NSCLC): > 100 µM | TGI (HOP-62 NSCLC): > 100 µM | TGI (DMS 273 small cell lung): > 100 µM | TGI (HCC-2998 colon): > 100 µM | TGI (SF-295 CNS): > 100 µM | TGI (IGROV1 ovarian): > 100 µM | TGI (COLO 205 colon): > 100 µM | TGI (SK-OV-3 ovarian): > 100 µM | TGI (SF-539 CNS): > 100 µM | TGI (DLD-1 colon): > 100 µM | TGI (ACHN renal): > 100 µM | TGI (M14 melanoma): > 100 µM | TGI (OVCAR-8 ovarian): > 100 µM | TGI (SF-268 CNS): > 100 µM | TGI (SK-MEL-28 melanoma): > 100 µM | TGI (HOP-18 NSCLC): > 100 µM | TGI (RXF 393 renal): > 100 µM | TGI (UO-31 renal): > 100 µM | TGI (NCI-H226 lung): > 100 µM | TGI (MALME-3M melanoma): > 100 µM | TGI (786-0 renal): > 100 µM

Cc1c(Cl)ccc2c1NC(=O)C2(O)CC(=O)c1ccc2ccccc2c1 (stereo not given)
TGI (SK-MEL-2 melanoma): > 100 µM | TGI (HCT-116 colon): > 100 µM | TGI (A498 renal): > 100 µM | TGI (KM12 colon): > 100 µM | TGI (OVCAR-5 ovarian): > 100 µM | TGI (UACC-62 melanoma): > 100 µM | TGI (LOX IMVI melanoma): > 100 µM | TGI (SNB-19 CNS): > 100 µM | TGI (SN12C renal): > 100 µM | TGI (MOLT-4 leukemia): 89.5 µM | TGI (XF 498 CNS): > 100 µM | TGI (SNB-75 CNS): 54.2 µM | TGI (U251 CNS): > 100 µM | TGI (RXF-631 renal): > 100 µM | TGI (SW-620 colon): > 100 µM | TGI (NCI-H460 lung): > 100 µM | TGI (K-562 leukemia): > 100 µM | TGI (HCT-15 colon): > 100 µM | TGI (UACC-257 melanoma): > 100 µM | TGI (HOP-92 NSCLC): > 100 µM | TGI (EKVX NSCLC): > 100 µM | TGI (RPMI-8226 leukemia): 46.7 µM | TGI (OVCAR-4 ovarian): > 100 µM | TGI (NCI-H23 lung): > 100 µM | TGI (TK-10 renal): > 100 µM | TGI (KM20L2 colon): > 100 µM | TGI (NCI-H522 lung): 61.7 µM | TGI (HT29 colon): > 100 µM | TGI (CAKI-1 renal): > 100 µM | TGI (CCRF-CEM leukemia): > 100 µM | TGI (DMS 114 small cell lung): 58.4 µM | TGI (A549 NSCLC): > 100 µM | TGI (HOP-62 NSCLC): > 100 µM | TGI (HCC-2998 colon): > 100 µM | TGI (SF-295 CNS): > 100 µM | TGI (IGROV1 ovarian): > 100 µM | TGI (COLO 205 colon): > 100 µM | TGI (SK-OV-3 ovarian): > 100 µM | TGI (SF-539 CNS): > 100 µM | TGI (DLD-1 colon): > 100 µM | TGI (ACHN renal): > 100 µM | TGI (M14 melanoma): > 100 µM | TGI (OVCAR-8 ovarian): > 100 µM | TGI (SF-268 CNS): > 100 µM | TGI (SK-MEL-28 melanoma): > 100 µM | TGI (HOP-18 NSCLC): > 100 µM | TGI (RXF 393 renal): 88.9 µM | TGI (UO-31 renal): > 100 µM | TGI (OVCAR-3 ovarian): > 100 µM | TGI (NCI-H226 lung): > 100 µM | TGI (MALME-3M melanoma): > 100 µM | TGI (786-0 renal): > 100 µM

CN(CC(=O)O)S(=O)(=O)c1ccc(F)cc1
TGI (SK-MEL-2 melanoma): > 100 µM | TGI (HL-60(TB) leukemia): > 100 µM | TGI (A498 renal): > 100 µM | TGI (KM12 colon): > 100 µM | TGI (OVCAR-5 ovarian): > 100 µM | TGI (UACC-62 melanoma): > 100 µM | TGI (LOX IMVI melanoma): > 100 µM | TGI (SNB-19 CNS): > 100 µM | TGI (SN12C renal): > 100 µM | TGI (MOLT-4 leukemia): > 100 µM | TGI (XF 498 CNS): > 100 µM | TGI (SNB-75 CNS): > 100 µM | TGI (U251 CNS): > 100 µM | TGI (RXF-631 renal): > 100 µM | TGI (SW-620 colon): > 100 µM | TGI (NCI-H460 lung): > 100 µM | TGI (M19-MEL melanoma): > 100 µM | TGI (K-562 leukemia): > 100 µM | TGI (HCT-15 colon): > 100 µM | TGI (LXFL 529 NSCLC): > 100 µM | TGI (UACC-257 melanoma): > 100 µM | TGI (HOP-92 NSCLC): > 100 µM | TGI (EKVX NSCLC): > 100 µM | TGI (RPMI-8226 leukemia): > 100 µM | TGI (OVCAR-4 ovarian): > 100 µM | TGI (NCI-H23 lung): > 100 µM | TGI (TK-10 renal): > 100 µM | TGI (KM20L2 colon): > 100 µM | TGI (NCI-H522 lung): > 100 µM | TGI (HT29 colon): > 100 µM | TGI (SK-MEL-5 melanoma): > 100 µM | TGI (CAKI-1 renal): > 100 µM | TGI (CCRF-CEM leukemia): > 100 µM | TGI (A549 NSCLC): > 100 µM | TGI (DMS 273 small cell lung): > 100 µM | TGI (HCC-2998 colon): > 100 µM | TGI (SF-295 CNS): > 100 µM | TGI (IGROV1 ovarian): > 100 µM | TGI (COLO 205 colon): > 100 µM | TGI (SK-OV-3 ovarian): > 100 µM | TGI (SF-539 CNS): > 100 µM | TGI (DLD-1 colon): > 100 µM | TGI (ACHN renal): > 100 µM | TGI (M14 melanoma): > 100 µM | TGI (OVCAR-8 ovarian): > 100 µM | TGI (SF-268 CNS): > 100 µM | TGI (SK-MEL-28 melanoma): > 100 µM | TGI (HOP-18 NSCLC): > 100 µM | TGI (RXF 393 renal): > 100 µM | TGI (UO-31 renal): > 100 µM | TGI (OVCAR-3 ovarian): > 100 µM | TGI (MALME-3M melanoma): > 100 µM | TGI (786-0 renal): > 100 µM
